Reference: PMC9007951, “Systematically evaluating DOTATATE and FDG as PET immuno-imaging tracers of cardiovascular inflammation” (Scientific Reports, 2022)
Where two headings read alike, the source gives them in different places.

How the values were obtained:
[1] = tested on: Apoe^−/− atherosclerotic mice; assay: In vivo PET/CT of vascular inflammation in atherosclerotic mice; settings: tracer circulated 60 min, median, N = 4
Protocol: (§1) Animals were housed under a constant room temperature at 25 ± 2 °C and 50 ± 5% humidity with a 12-h daylight period and 12-h darkness period, with free access to water. For the mouse atherosclerosis model, 8-weeks old female Apoe^−/− mice (N = 51) were purchased from Jackson Laboratories (Bar Harbor, ME) and, after a 48 h acclimatization period, were fed a Western Diet (42% Kcal from fat TD88137, Envigo, Huntingdon, UK) for 12 weeks. 16–20 weeks old female C57Bl/6 controls (N = 67) were kept on regular chow diet. The myocardial infarction group consisted 16–20 weeks old female C57Bl/6 mice (N = 18) purchased from Jackson Laboratories and subjected to ligation of the left anterior descending artery, as previously described.
(§2) For the PET/CT experiments, mice were fasted for 12 h before radiotracer injection and anesthetized with xylazine (10 mg/kg) and ketamine (100 mg/kg) through intraperitoneal injection prior to radiotracer administration. Subsequently they were injected via the lateral tail vein with approximately 22.2 MBq of [^18F]F-FDG or 5.55 MBq of [^64Cu]Cu-DOTATATE. Tracers were allowed to circulate for 60 min. Immediately before imaging, mice were placed under 1% isoflurane (BaxterHealthcare, Deerfield, IL), and subsequently imaged on a high resolution (700 µm) Mediso nanoScan PET/CT scanner (Mediso, Budapest, Hungary). CT scan was acquired at 50 kVp and 300 ms exposure per projection. eXIA160 (Binitio, Ontario, Canada) was used as a contrast agent to improve imaging of the vasculature by intravenous administration of 100 μl per mouse 5 min prior to CT acquisition. PET acquisition time was 40 min. Reconstruction was performed using TeraTomo 3D reconstruction engine, for 8 iterations and 6 subsets per iteration for both tracers. The voxel size was isotropic at 0.3 mm. Immediately after the PET/CT scan, animals were euthanized for ex vivo assays.
(§3) Using OsiriX v5.6 software (OsiriX Foundation, Geneva, Switzerland), regions of interest (ROIs) were drawn to determine organ radioactivity concentration. In mice, for healthy and infarcted myocardium, ROIs were traced manually in the apex of the heart in the axial view. For remote myocardium, analysis was performed in myocardium 180° from the infarcted zone. In the mice aorta, sequential ROIs were drawn in the ascending aorta based on consecutive tomographic (CT) slices beginning from the root up to the brachiocephalic branch, merging point with the aortic arch. Voxel counts were converted to maximum standardized uptake values (SUVmax). In rabbits, PET images were fused with time-of-flight bright blood MRI angiography and ROIs were manually drawn on the infrarenal abdominal aorta in TOF images. The slice-by-slice maximum standard uptake values (SUVmax) were averaged across the whole aorta. […]

[2] = as above; settings: female, mouse, ascending aorta, iv, 5.55 MBq, total radioactivity, tracer circulated 60 min, median, N = 4, read-out: SUVmax ascending aorta
Protocol: as §1, §2, §3

[3] = Ex vivo gamma counting of whole aorta after PET/CT; format: in vivo, mice; settings: female, mouse, iv, 5.55 MBq, total radioactivity, median, N = 4
Protocol: S1A) to evaluate the tracer’s biodistribution. After euthanasia, an insulin syringe was used to collect blood samples from the right ventricle. Blood samples were used for the establishment of pharmacokinetics profile. Mice were then perfused with 20 mL of phosphate-buffered saline (PBS) and tissues of interest (heart, aorta, bone marrow, spleen, liver, stomach, bladder, kidneys, intestines, lungs, adrenal gland, muscles and pancreas) were harvested. Tissues were blotted for gamma counting on a Wizard2 2480 automatic gamma counter (Perkin Elmer, Waltham, MA). Values were corrected for decay and normalized to tissue weight to express radioactivity concentration as percentage injected dose per gram (%ID/g). […] To investigate the tracer’s distribution within different blood compartments, after gamma counting, 100 μL of blood were spun down at 2000 g for 15 min at 4 °C. Plasma (supernatant) and cells (pellet) were gamma counted and expressed as percentage of total activity. The remainder of the blood was separated using Lymphoprep density gradient medium (Nycomed Pharma, Zurich, Switzerland) following manufacturer’s instructions. Percentage of activity in mononuclear and polynuclear cells was calculated. […]

[4] = Blood half-life of [^68Ga]Ga-DOTATATE, gamma counting of venous blood, two-phase decay fit; format: in vivo, New Zealand White rabbits
Protocol: Adopting a translational approach, the rabbit studies were performed with the [^68Ga]Ga-labeled tracer, which is already being used in the clinic. [^68Ga]Ga-DOTATATE was purchased from Advanced Accelerator Applications (AAA, Millburn, NJ, USA). To determine its pharmacokinetics, three atherosclerotic rabbits and two healthy controls were injected with approximately 190 MBq of [^68Ga]Ga-DOTATATE. Venous blood was sampled at 1, 5, 10, 15, 20, 30, 60, 120, 180, 240 and 300 min after injection through the ear vein. Samples were weighed and gamma counted. Blood half-life data were fitted using a two-phase decay non-linear regression using GraphPad Prism v8.4.3 (Supplementary Table S1). To investigate the tracer blood distribution, blood samples were centrifuged at 2000 g for 15 min at 4 °C to determine the radioactivity concentration in the plasma and cellular fractions. To analyze [^68Ga]Ga-DOTATATE biodistribution, all rabbits were euthanized after the last imaging time-point using an injection of pentobarbital 100 mg/kg and exsanguination of the portal vein. Rabbits were extensively perfused with 1000 mL of saline. Following, tissues (blood, heart, aorta, liver, kidney, skeletal muscle, small and large intestine, fat, stomach, pancreas and bladder) were harvested, weighed and gamma counted.

[5] = Apoe^−/− mice 12 weeks on Western Diet

`OC[C@H]1OC(O)[C@H]([18F])[C@@H](O)[C@@H]1O` (stereo partly shown) [[^18F]F-FDG, [^18F]F-fluorodeoxyglucose] showed an SUVmax ascending aorta [1, 5] of 1.2 and an SUVmax ascending aorta ([1]; healthy C57Bl/6 control mice) of 1.7.

Work on `C[C@@H](O)[C@H](NC(=O)[C@@H]1CSSC[C@H](NC(=O)[C@@H](Cc2ccccc2)NC(=O)CN2CCN(CC(=O)O)CCN(CC(=O)O)CCN(CC(=O)O)CC2)C(=O)N[C@@H](Cc2ccc(O)cc2)C(=O)N[C@H](Cc2c[nH]c3ccccc23)C(=O)N[C@@H](CCCCN)C(=O)N[C@@H]([C@@H](C)O)C(=O)N1)C(=O)O` [[^64Cu]Cu-DOTATATE, metal not drawn] yielded an SUV at 1 h [2, 5] of 1.1 SUV, an SUV at 1 h ([2]; healthy C57Bl/6 control mice) of 0.5 SUV and a tissue uptake ([3]; atherosclerotic Apoe^−/− mice after PET/CT) of 7.4 %ID/g. It also gave a tissue uptake ([3]; control C57Bl/6 mice after PET/CT) of 3.5 %ID/g.

With `C[C@@H](O)[C@H](NC(=O)[C@@H]1CSSC[C@H](NC(=O)[C@@H](Cc2ccccc2)NC(=O)CN2CCN(CC(=O)O)CCN(CC(=O)O)CCN(CC(=O)O)CC2)C(=O)N[C@@H](Cc2ccc(O)cc2)C(=O)N[C@H](Cc2c[nH]c3ccccc23)C(=O)N[C@@H](CCCCN)C(=O)N[C@@H]([C@@H](C)O)C(=O)N1)C(=O)O` [[^68Ga]Ga-DOTATATE, metal not drawn] the “%fast” value ([4]; athero4mo rabbits, N = 3) was 53.17%, the “%slow” value ([4]; athero4mo rabbits, N = 3) was 46.83% and the “Weighed t1/2 (weighted half-life)” value ([4]; athero4mo rabbits, N = 3) was 53.66 min. The t1/2 fast ([4]; athero4mo rabbits, N = 3) was 19.17 min, the t1/2 slow ([4]; athero4mo rabbits, N = 3) was 92.82 min and the “%fast” value ([4]; control rabbits, N = 2) was 39.7%. The “%slow” value ([4]; control rabbits, N = 2) was 60.3%, the “Weighed t1/2 (weighted half-life)” value ([4]; control rabbits, N = 2) was 21.17 min and the t1/2 fast ([4]; control rabbits, N = 2) was 3.419 min. The t1/2 slow ([4]; control rabbits, N = 2) was 32.86 min.
